# Assay results taken from ChEMBL document CHEMBL3044845, “Synthesis and biological activity studies of furan derivatives” (2010).
# Activity calls are given as the source filed them. No cut-off for these calls is given here.
# Columns and labels:
# Micrococcus luteus [1] = test: Antibacterial activity against Micrococcus luteus NRRLB 4375 after 24 hr by disk diffusion method; format: functional
# Micrococcus luteus [2] = test: Antibacterial activity against Micrococcus luteus NRRLB 4375 at 5 mg/ml after 24 hr by disk diffusion method; format: functional; details: for zone of inhibition at 5000 µg/mL: NRRLB 4375, 24 h, read-out: DIZ
# Listeria monocytogenes [3] = test: Antibacterial activity against Listeria monocytogenes ATCC 7644 at 5 mg/ml after 24 hr by disc diffusion method; format: functional; details: for zone of inhibition at 5000 µg/mL: ATCC 7644, 24 h, read-out: DIZ
# Escherichia coli [4] = test: Antibacterial activity against Escherichia coli ATCC […] at 5 mg/ml after 24 hr by disk diffusion method; format: functional; details: read-out: DIZ
# Staphylococcus aureus [5] = test: Antibacterial activity against Staphylococcus aureus ATCC 25923 at 5 mg/ml after 24 hr by disk diffusion method; format: functional; details: ATCC 25923, 24 h, read-out: DIZ
# Salmonella enteritidis [6] = test: Antibacterial activity against Salmonella enterica subsp. enterica serovar Enteritidis ATCC 1376 at 5 mg/ml after 24 hr by disk diffusion method; format: functional; details: for zone of inhibition at 5000 µg/mL: ATCC 1376, 24 h, read-out: DIZ
# Priestia megaterium [7] = test: Antibacterial activity against Bacillus megaterium ATCC 6633 at 5 mg/ml after 24 hr by disk diffusion method; format: functional
# Pseudomonas aeruginosa [8] = test: Antibacterial activity against Pseudomonas aeruginosa ATCC […] at 5 mg/ml after 24 hr by disk diffusion method; format: functional; details: for zone of inhibition at 5000 µg/mL: read-out: DIZ
# Bacillus subtilis [9] = test: Antibacterial activity against Bacillus subtilis RSKK 244 at 5 mg/ml after 24 hr by disk diffusion method; format: functional; details: for zone of inhibition at 5000 µg/mL: RSKK 244, 24 h, read-out: DIZ
# Bacillus subtilis [10] = test: Antibacterial activity against Bacillus subtilis RSKK 244 after 24 hr by disk diffusion method; format: functional
# Priestia megaterium [11] = test: Antibacterial activity against Bacillus megaterium ATCC 6633 after 24 hr by disk diffusion method; format: functional
# Staphylococcus aureus [12] = test: Antibacterial activity against Staphylococcus aureus ATCC 25923 after 24 hr by disk diffusion method; format: functional
# Escherichia coli [13] = test: Antibacterial activity against Escherichia coli ATCC […] after 24 hr by disk diffusion method; format: functional
# Listeria monocytogenes [14] = test: Antibacterial activity against Listeria monocytogenes ATCC 7644 after 24 hr by disk diffusion method; format: functional, organism-based
# Pseudomonas aeruginosa [15] = test: Antibacterial activity against Pseudomonas aeruginosa ATCC […] after 24 hr by disk diffusion method; format: functional, organism-based
# Salmonella enteritidis [16] = test: Antibacterial activity against Salmonella enterica subsp. enterica serovar Enteritidis ATCC 1376 after 24 hr by disk diffusion method; format: functional, organism-based
Compound,diameter of the inhibition zone (DIZ) (Micrococcus luteus [1]) [mm],zone of inhibition at 5000 µg/mL (Micrococcus luteus [2]) [mm],zone of inhibition at 5000 µg/mL (Listeria monocytogenes [3]) [mm],zone of inhibition at 5000 µg/mL (Escherichia coli [4]) [mm],zone of inhibition at 5000 µg/mL (Staphylococcus aureus [5]) [mm],zone of inhibition at 5000 µg/mL (Salmonella enteritidis [6]) [mm],diameter of the inhibition zone (DIZ) (Priestia megaterium [7]),zone of inhibition at 5000 µg/mL (Pseudomonas aeruginosa [8]) [mm],zone of inhibition at 5000 µg/mL (Bacillus subtilis [9]) [mm],further results
CN(C)[C@@H]1C(O)=C(C(N)=O)C(=O)[C@@]2(O)C(O)=C3C(=O)c4c(O)cccc4[C@@](C)(O)[C@H]3C[C@@H]12 [TETRACYCLINE],9,,,,,,,,,
CCCC1(c2ccccc2)OC(c2cc3ccccc3o2)=C(C#N)C1c1ccccc1 (stereo not given),,13,13,10,12,14,inactive,10,11,
CCC1C(C#N)=C(c2ccco2)OC1(c1ccccc1)c1ccccc1 (stereo not given),,14,16,13,10,10,,12,11,"zone of inhibition at 5000 µg/mL (Priestia megaterium [7]; ATCC 6633, 24 h, read-out: DIZ): 10 mm"
CC1(C)S[C@@H]2[C@H](NC(=O)[C@H](N)c3ccccc3)C(=O)N2[C@H]1C(=O)O [AMPICILLIN],28,,,,,,,,,diameter of the inhibition zone (DIZ) (Bacillus subtilis [10]): 15 mm; diameter of the inhibition zone (DIZ) (Priestia megaterium [11]): 10 mm; diameter of the inhibition zone (DIZ) (Staphylococcus aureus [12]): 9 mm
CCC1C(C#N)=C(c2ccccc2)OC1(c1ccccc1)c1ccccc1 (stereo not given),,13,11,11,13,13,inactive,12,11,
CC1(C)S[C@@H]2[C@H](NC(=O)Cc3ccccc3)C(=O)N2[C@H]1C(=O)O [PENICILLIN G],31,,,,,,,,,diameter of the inhibition zone (DIZ) (Escherichia coli [13]): 19 mm
CCCC1(c2ccccc2)OC(c2ccccc2)=C(C#N)C1c1ccccc1 (stereo not given),,13,18,12,14,16,inactive,10,10,
CCC1C(C#N)=C(c2cccs2)OC1(c1ccccc1)c1ccccc1 (stereo not given),,,,10,8,,inactive,,,diameter of the inhibition zone (DIZ) (Micrococcus luteus [2]): inactive; diameter of the inhibition zone (DIZ) (Listeria monocytogenes [3]): inactive; diameter of the inhibition zone (DIZ) (Salmonella enteritidis [6]): inactive; diameter of the inhibition zone (DIZ) (Pseudomonas aeruginosa [8]): inactive; diameter of the inhibition zone (DIZ) (Bacillus subtilis [9]): inactive
GENTAMICIN,,,,,,,,,,inhibition zone (IZ) (Listeria monocytogenes [14]): 10 mm; inhibition zone (IZ) (Pseudomonas aeruginosa [15]): 16 mm; inhibition zone (IZ) (Salmonella enteritidis [16]): 9 mm
